Measurements reported in ChEMBL document CHEMBL5236630, “Discovery of selective platelet-derived growth factor receptor-beta (PDGFR-β) bifunctional small-molecule degraders” (Bioorg Med Chem, 2023).
Blank lines part the entries; values can stand above or below the compound they belong to. The source made the active and inactive calls. The calls are words filed in the database; no cut-off is given here.

Legend:
[1] = Induction of apoptosis in human U87 cells assessed as late apoptotic cells at 1 uM incubated for 48 hrs by Annexin-V/PI staining based flow cytometry (Rvb= 2.97%); format: functional, U-87MG ATCC
[2] = target: T1, von Hippel-Lindau disease tumor suppressor/Platelet-derived growth factor receptor beta (Homo sapiens) (UniProt P09619+P40337); assay: Protac activity at VHL/PDGFRbeta in human U87 cells assessed as reduction in PDGFRbeta protein level at 10 uM preincubated with Carfilzomib for 2hrs followed by compound treatment and measured after 48 hrs by Western blot analysis; format: cell-based
[3] = target: Platelet-derived growth factor receptor beta (Homo sapiens) (UniProt P09619); assay: Protac activity at PDGFRbeta in human U87 cells assessed as reduction in PDGFRbeta protein level at 10 uM incubated for 48 hrs by Western blot analysis; format: cell-based
[4] = target: T1, von Hippel-Lindau disease tumor suppressor/Platelet-derived growth factor receptor beta (Homo sapiens); assay: Protac activity at VHL/PDGFRbeta in human U87 cells assessed as reduction in PDGFRbeta protein level at 10 uM preincubated with Leupeptin for 2hrs followed by compound treatment and measured after 48 hrs by Western blot analysis; format: cell-based
U-87MG ATCC [5] = assay: Induction of cell cycle arrest in human U87 cells assessed decrease of cells in G2 phase at 1 to 10 uM incubated for 48 hrs by flow cytometry; format: functional, cell-based; conditions: dose 1-10 µM
[6] = Induction of apoptosis in human U87 cells assessed as late apoptotic cells at 5 uM incubated for 48 hrs by Annexin-V/PI staining based flow cytometry (Rvb= 2.97%); format: functional, U-87MG ATCC
[7] = Induction of apoptosis in human U87 cells assessed as viable cells at 20 uM incubated for 48 hrs by Annexin-V/PI staining based flow cytometry (Rvb= 93.16%); format: functional, U-87MG ATCC; conditions: U-87 MG, read-out: Activity
[8] = target: Serine/threonine-protein kinase B-raf (Homo sapiens) (UniProt P15056); assay: Protac activity at BRAF in human EA.hy 926 cells assessed decrease in BRAF level at 10 uM incubated for 72 hrs by Western blot analysis; format: cell-based
[9] = target: T1, von Hippel-Lindau disease tumor suppressor/Platelet-derived growth factor receptor beta (Homo sapiens); assay: Protac activity at VHL/PDGFRbeta in human U87 cells assessed as reduction in PDGFRbeta protein level at 0.1 to 15 uM incubated for 72 hrs by Western blot analysis; format: cell-based; conditions: dose 0.1-15 µM
[10] = Induction of apoptosis in human U87 cells assessed as early apoptotic cells at 10 uM incubated for 48 hrs by Annexin-V/PI staining based flow cytometry (Rvb= 2.74%); format: functional, U-87MG ATCC
HEK293 = assay: Cytotoxicity against human HEK293 cells assessed as reduction in cell viability at 50 uM incubated for 48 hrs by MTT assay; format: toxicity, cell-based; conditions: hek293, 48 h
[11] = Induction of apoptosis in human U87 cells assessed as necrotic cells at 20 uM incubated for 48 hrs by Annexin-V/PI staining based flow cytometry (Rvb= 1.13%); format: functional, U-87MG ATCC
[12] = Induction of apoptosis in human U87 cells assessed as viable cells at 1 uM incubated for 48 hrs by Annexin-V/PI staining based flow cytometry (Rvb= 93.16%); format: functional, U-87MG ATCC; conditions: U-87 MG, read-out: Activity
[13] = target: Platelet-derived growth factor receptor beta (Homo sapiens) (UniProt P09619); assay: Protac activity at PDGFRbeta in human U87 cells assessed as reduction in PDGFRbeta protein level at 0.1 to 10 uM incubated for 48 to 72 hrs by Western blot analysis; format: cell-based; conditions: dose 0.1-10 µM, time 48-72 hrs
[14] = Induction of apoptosis in human U87 cells assessed as necrotic cells at 1 uM incubated for 48 hrs by Annexin-V/PI staining based flow cytometry (Rvb= 1.13%); format: functional, U-87MG ATCC
[15] = Induction of apoptosis in human U87 cells assessed as necrotic cells at 10 uM incubated for 48 hrs by Annexin-V/PI staining based flow cytometry (Rvb= 1.13%); format: functional, U-87MG ATCC
[16] = Induction of apoptosis in human U87 cells assessed as late apoptotic cells at 10 uM incubated for 48 hrs by Annexin-V/PI staining based flow cytometry (Rvb= 2.97%); format: functional, U-87MG ATCC
[17] = target: T1, von Hippel-Lindau disease tumor suppressor/Platelet-derived growth factor receptor beta (Homo sapiens); assay: Protac activity at VHL/PDGFRbeta in human U87 cells assessed as reduction in PDGFRbeta protein level at 10 uM preincubated with sorafenib for 2hrs followed by compound treatment and measured after 48 hrs by Western blot analysis; format: cell-based
U-87MG ATCC [18] = assay: Induction of cell cycle arrest in human U87 cells assessed increase of cells in S phase at 1 to 10 uM incubated for 48 hrs by flow cytometry; format: functional, cell-based; conditions: dose 1-10 µM
[19] = target: T1, von Hippel-Lindau disease tumor suppressor/Platelet-derived growth factor receptor beta (Homo sapiens); assay: Protac activity at VHL/PDGFRbeta in human U87 cells assessed as reduction in PDGFRbeta protein level at 10 uM incubated for 4 to 16 hrs by Western blot analysis; format: cell-based; conditions: time 4-16 hrs
[20] = Induction of apoptosis in human U87 cells assessed as viable cells at 5 uM incubated for 48 hrs by Annexin-V/PI staining based flow cytometry (Rvb= 93.16%); format: functional, U-87MG ATCC; conditions: U-87 MG, read-out: Activity
[21] = Induction of apoptosis in human U87 cells assessed as early apoptotic cells at 0.1 uM incubated for 48 hrs by Annexin-V/PI staining based flow cytometry (Rvb= 2.74%); format: functional, U-87MG ATCC
[22] = Induction of apoptosis in human U87 cells assessed as early apoptotic cells at 1 uM incubated for 48 hrs by Annexin-V/PI staining based flow cytometry (Rvb= 2.74%); format: functional, U-87MG ATCC
[23] = Antiproliferative activity against human U87 cells assessed as reduction in cell viability incubated for 48 hrs by MTT assay; format: functional, cell-based, U-87MG ATCC; conditions: U-87 MG
[24] = Induction of apoptosis in human U87 cells assessed as early apoptotic cells at 20 uM incubated for 48 hrs by Annexin-V/PI staining based flow cytometry (Rvb= 2.74%); format: functional, U-87MG ATCC
[25] = target: Platelet-derived growth factor receptor beta (Homo sapiens) (UniProt P09619); assay: Protac activity at PDGFRbeta in human U87 cells assessed as increase in VEGFR-2 protein level at 10 uM incubated for 72 hrs by Western blot analysis; format: cell-based
[26] = Induction of apoptosis in human U87 cells assessed as late apoptotic cells at 20 uM incubated for 48 hrs by Annexin-V/PI staining based flow cytometry (Rvb= 2.97%); format: functional, U-87MG ATCC
[27] = Induction of apoptosis in human U87 cells assessed as necrotic cells at 5 uM incubated for 48 hrs by Annexin-V/PI staining based flow cytometry (Rvb= 1.13%); format: functional, U-87MG ATCC
[28] = Induction of apoptosis in human U87 cells assessed as late apoptotic cells at 0.1 uM incubated for 48 hrs by Annexin-V/PI staining based flow cytometry (Rvb= 2.97%); format: functional, U-87MG ATCC
[29] = Induction of apoptosis in human U87 cells assessed as viable cells at 0.1 uM incubated for 48 hrs by Annexin-V/PI staining based flow cytometry (Rvb= 93.16%); format: functional, U-87MG ATCC; conditions: U-87 MG, read-out: Activity
[30] = target: Platelet-derived growth factor receptor beta (Homo sapiens) (UniProt P09619); assay: Protac activity at PDGFRbeta in human U87 cells assessed as reduction in PDGFRbeta protein level at 10 uM incubated for 72 hrs by Western blot analysis; format: cell-based; set-up: scale not given: the % may be the effect or the level left
[31] = target: T1, von Hippel-Lindau disease tumor suppressor/Platelet-derived growth factor receptor beta (Homo sapiens); assay: Protac activity at VHL/PDGFRbeta in human U87 cells assessed as reduction in PDGFRbeta protein level at 10 uM preincubated with MG-132 for 2hrs followed by compound treatment and measured after 48 hrs by Western blot analysis; format: cell-based
[32] = Induction of apoptosis in human U87 cells assessed as necrotic cells at 0.1 uM incubated for 48 hrs by Annexin-V/PI staining based flow cytometry (Rvb= 1.13%); format: functional, U-87MG ATCC
[33] = Induction of apoptosis in human U87 cells assessed as early apoptotic cells at 5 uM incubated for 48 hrs by Annexin-V/PI staining based flow cytometry (Rvb= 2.74%); format: functional, U-87MG ATCC
[34] = target: T1, von Hippel-Lindau disease tumor suppressor/Platelet-derived growth factor receptor beta (Homo sapiens); assay: Protac activity at VHL/PDGFRbeta in human U87 cells assessed as reduction in PDGFRbeta protein level at 10 uM preincubated with VH032 for 2hrs followed by compound treatment and measured after 48 hrs by Western blot analysis; format: cell-based
[35] = Induction of apoptosis in human U87 cells assessed as viable cells at 10 uM incubated for 48 hrs by Annexin-V/PI staining based flow cytometry (Rvb= 93.16%); format: functional, U-87MG ATCC; conditions: U-87 MG, read-out: Activity
HepG2 = assay: Antiproliferative activity against human HepG2 cells assessed as reduction in cell viability incubated for 48 hrs by MTT assay; format: functional, cell-based; conditions: HepG2, 48 h
EA.hy 926 = assay: Antiproliferative activity against human EA.hy 926 cells assessed as reduction in cell viability incubated for 48 hrs by MTT assay; format: functional, cell-based; conditions: EA.hy 926, 48 h

Platelet-derived growth factor receptor beta (Homo sapiens), sequence (P09619 whole entry): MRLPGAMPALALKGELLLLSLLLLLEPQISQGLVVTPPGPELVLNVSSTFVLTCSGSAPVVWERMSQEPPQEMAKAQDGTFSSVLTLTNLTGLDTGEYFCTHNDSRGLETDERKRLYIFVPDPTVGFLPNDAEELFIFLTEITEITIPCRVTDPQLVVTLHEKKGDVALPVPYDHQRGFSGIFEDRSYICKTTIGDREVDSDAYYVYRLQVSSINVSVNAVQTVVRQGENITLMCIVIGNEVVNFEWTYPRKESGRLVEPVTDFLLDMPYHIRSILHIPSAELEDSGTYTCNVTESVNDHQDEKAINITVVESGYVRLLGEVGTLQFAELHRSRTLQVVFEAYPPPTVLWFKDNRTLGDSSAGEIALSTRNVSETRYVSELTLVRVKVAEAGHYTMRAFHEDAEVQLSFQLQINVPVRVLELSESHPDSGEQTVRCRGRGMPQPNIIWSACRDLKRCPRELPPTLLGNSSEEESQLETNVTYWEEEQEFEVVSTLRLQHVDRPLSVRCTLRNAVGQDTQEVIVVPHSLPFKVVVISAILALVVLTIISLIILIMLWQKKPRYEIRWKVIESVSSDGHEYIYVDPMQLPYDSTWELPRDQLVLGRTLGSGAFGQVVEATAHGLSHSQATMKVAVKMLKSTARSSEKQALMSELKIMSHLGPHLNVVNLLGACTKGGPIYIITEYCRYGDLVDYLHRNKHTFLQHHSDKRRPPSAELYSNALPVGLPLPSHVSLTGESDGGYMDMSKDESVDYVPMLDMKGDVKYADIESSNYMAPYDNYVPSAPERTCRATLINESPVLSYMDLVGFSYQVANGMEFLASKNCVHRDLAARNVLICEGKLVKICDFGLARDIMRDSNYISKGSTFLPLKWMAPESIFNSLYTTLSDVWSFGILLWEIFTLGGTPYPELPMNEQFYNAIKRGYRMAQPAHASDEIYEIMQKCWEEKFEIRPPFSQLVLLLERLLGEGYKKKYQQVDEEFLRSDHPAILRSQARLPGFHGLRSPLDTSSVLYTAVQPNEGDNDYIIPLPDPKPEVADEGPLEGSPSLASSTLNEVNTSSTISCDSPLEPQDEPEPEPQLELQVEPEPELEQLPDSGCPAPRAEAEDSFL
T1 sequence (P09619 33-1106 limits assumed): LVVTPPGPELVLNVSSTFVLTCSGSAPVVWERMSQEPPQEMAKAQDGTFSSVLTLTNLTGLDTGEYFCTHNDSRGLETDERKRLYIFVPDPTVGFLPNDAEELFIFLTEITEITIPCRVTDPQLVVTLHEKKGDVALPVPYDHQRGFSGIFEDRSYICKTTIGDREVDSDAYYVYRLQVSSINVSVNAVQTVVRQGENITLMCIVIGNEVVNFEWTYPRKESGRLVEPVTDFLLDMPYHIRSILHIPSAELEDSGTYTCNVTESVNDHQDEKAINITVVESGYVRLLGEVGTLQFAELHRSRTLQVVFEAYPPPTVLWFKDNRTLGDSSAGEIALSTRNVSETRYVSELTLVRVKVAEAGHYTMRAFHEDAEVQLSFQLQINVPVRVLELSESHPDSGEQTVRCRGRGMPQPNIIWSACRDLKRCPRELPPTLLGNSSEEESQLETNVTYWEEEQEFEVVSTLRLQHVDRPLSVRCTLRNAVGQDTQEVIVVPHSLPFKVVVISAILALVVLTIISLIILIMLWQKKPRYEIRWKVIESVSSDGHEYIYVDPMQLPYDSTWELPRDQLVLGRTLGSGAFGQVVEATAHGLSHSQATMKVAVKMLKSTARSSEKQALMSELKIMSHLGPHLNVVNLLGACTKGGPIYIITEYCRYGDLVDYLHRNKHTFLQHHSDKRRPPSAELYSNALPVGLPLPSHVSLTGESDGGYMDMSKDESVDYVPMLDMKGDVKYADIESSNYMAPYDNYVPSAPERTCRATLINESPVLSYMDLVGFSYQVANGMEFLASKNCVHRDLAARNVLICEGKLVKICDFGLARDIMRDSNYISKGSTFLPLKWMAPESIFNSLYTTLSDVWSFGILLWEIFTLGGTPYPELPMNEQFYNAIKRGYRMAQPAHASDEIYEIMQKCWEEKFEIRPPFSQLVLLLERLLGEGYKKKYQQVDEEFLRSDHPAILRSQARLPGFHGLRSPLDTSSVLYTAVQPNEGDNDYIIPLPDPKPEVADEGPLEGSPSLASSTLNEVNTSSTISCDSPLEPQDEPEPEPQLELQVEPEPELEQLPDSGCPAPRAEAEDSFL
T1 sequence (P40337 whole entry partner): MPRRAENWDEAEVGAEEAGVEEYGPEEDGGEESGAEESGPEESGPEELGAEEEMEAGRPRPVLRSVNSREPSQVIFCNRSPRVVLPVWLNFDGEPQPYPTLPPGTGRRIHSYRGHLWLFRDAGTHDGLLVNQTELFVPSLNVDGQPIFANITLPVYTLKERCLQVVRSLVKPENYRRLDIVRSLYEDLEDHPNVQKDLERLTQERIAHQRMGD
Serine/threonine-protein kinase B-raf (Homo sapiens), sequence (P15056 whole entry): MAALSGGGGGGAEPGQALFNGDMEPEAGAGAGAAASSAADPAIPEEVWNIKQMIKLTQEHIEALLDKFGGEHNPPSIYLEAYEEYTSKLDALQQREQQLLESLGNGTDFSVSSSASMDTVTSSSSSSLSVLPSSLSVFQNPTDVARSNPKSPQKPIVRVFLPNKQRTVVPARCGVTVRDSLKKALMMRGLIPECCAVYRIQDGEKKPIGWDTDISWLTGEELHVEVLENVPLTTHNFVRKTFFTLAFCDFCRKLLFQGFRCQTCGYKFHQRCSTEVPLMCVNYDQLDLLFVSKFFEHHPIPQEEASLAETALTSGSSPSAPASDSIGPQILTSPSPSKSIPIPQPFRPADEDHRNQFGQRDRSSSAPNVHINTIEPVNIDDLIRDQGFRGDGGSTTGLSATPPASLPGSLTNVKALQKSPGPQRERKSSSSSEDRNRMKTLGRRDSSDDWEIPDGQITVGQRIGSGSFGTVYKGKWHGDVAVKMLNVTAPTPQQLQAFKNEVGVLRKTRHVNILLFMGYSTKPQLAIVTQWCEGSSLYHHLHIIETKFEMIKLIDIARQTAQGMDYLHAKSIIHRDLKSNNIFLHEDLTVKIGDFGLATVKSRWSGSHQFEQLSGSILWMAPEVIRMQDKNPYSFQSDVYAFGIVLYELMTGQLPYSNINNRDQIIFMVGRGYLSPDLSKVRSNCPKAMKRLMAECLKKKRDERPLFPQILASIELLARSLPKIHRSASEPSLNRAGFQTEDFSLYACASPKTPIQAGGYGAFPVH

Activity [2]: Active | Activity [3]: Active | Activity [4]: inactive | Activity [8]: Active | Activity [9]: Active | Activity [13]: Dose-Dependent Effect | Activity [17]: Active | Activity [19]: Dose-Dependent Effect | Activity [25]: Active | Activity [30]: > 70% | Activity [31]: inactive | Activity [34]: Active
Compound: Cc1ncsc1-c1ccc(CNC(=O)[C@@H]2C[C@@H](O)CN2C(=O)[C@@H](NC(=O)CCCNC(=O)c2cc(Oc3ccc(NC(=O)Nc4ccc(Cl)c(C(F)(F)F)c4)cc3)ccn2)C(C)(C)C)cc1
Activity [1]: 1.71% | Activity (U-87MG ATCC [5]): Active | Activity [6]: 1.59% | viability at 20 µM [7]: 90.6% | Activity [10]: 2.49% | Activity (HEK293): Non-Toxic | Activity [11]: 1.63% | viability at 1 µM [12]: 96.2% | Activity [14]: 0.49% | Activity [15]: 0.85% | Activity [16]: 2.03% | Activity (U-87MG ATCC [18]): Active | viability at 5 µM [20]: 96.1% | Activity [21]: 2.02% | Activity [22]: 1.66% | IC50 [23]: 12.3 µM | Activity [24]: 3.25% | Activity [26]: 4.56% | Activity [27]: 0.63% | Activity [28]: 1.82% | viability at 0.1 µM [29]: 95.3% | Activity [32]: 0.89% | Activity [33]: 1.66% | viability at 10 µM [35]: 94.6%

Activity [3]: Active | Activity [13]: Dose-Dependent Effect | Activity [25]: Active | Activity [30]: > 70%
Compound: O=C(CNc1cccc2c1C(=O)N(C1CCC(=O)NC1=O)C2=O)NCCCCNC(=O)c1cc(Oc2ccc(NC(=O)Nc3ccc(Cl)c(C(F)(F)F)c3)cc2)ccn1 (stereo unspecified)
Activity (HEK293): Non-Toxic

IC50 (HepG2): > 50 µM | Activity [9]: inactive
Compound: Cc1ncsc1-c1ccc(CNC(=O)[C@@H]2C[C@H](O)CN2C(=O)[C@@H](NC(=O)CCCNC(=O)c2cc(Oc3ccc(NC(=O)Nc4ccc(Cl)c(C(F)(F)F)c4)cc3)ccn2)C(C)(C)C)cc1
IC50 (EA.hy 926): > 50 µM | IC50 [23]: 20.3 µM

IC50 (HepG2): 2.69 µM
Compound: CNC(=O)c1cc(Oc2ccc(NC(=O)Nc3ccc(Cl)c(C(F)(F)F)c3)cc2)ccn1 [SORAFENIB]
Activity (HEK293): Non-Toxic | IC50 (EA.hy 926): 11 µM | IC50 [23]: 12.7 µM

IC50 (HepG2): 0.039 µM | Activity [3]: Active | Activity [13]: Dose-Dependent Effect | Activity [25]: Active | Activity [30]: > 70%
Compound: O=C1CCC(N2Cc3c(NC(=O)CCCNC(=O)c4cc(Oc5ccc(NC(=O)Nc6ccc(Cl)c(C(F)(F)F)c6)cc5)ccn4)cccc3C2=O)C(=O)N1 (stereo unspecified)
Activity (HEK293): Non-Toxic | IC50 (EA.hy 926): 13.4 µM
